These results are taken from ChEMBL document CHEMBL1159143, “Benzofuran based non-peptide antagonists of angiotensin II related to GR117289: part IV; imidazopyridinylbenzofurans” (Bioorg Med Chem Lett, 1994).

Data set [1] can be described thus: Oral bioavailability in rat. It is filed as ADME, organism-based. As to conditions: in vivo.
Data set [2] relates to Type-1 angiotensin II receptor (Oryctolagus cuniculus). As to the kind of experiment: In vitro inhibitory activity against Angiotensin II receptor in rabbit aorta was evaluated.
Data set [3] can be described thus: Volume distribution in rat. The format is ADME, organism-based. As to conditions: in vivo.
Data set [4] is described as follows: Compound was tested for plasma half-life period in rat. It is filed as ADME, organism-based.
Data set [5] is described as follows: Compound was tested for plasma clearance in rats. It is filed as ADME, organism-based. Conditions: rat, read-out: Clp.

Turning to `CCc1nc2c(C)cc(CO)nc2n1Cc1ccc2oc(-c3ccccc3NS(=O)(=O)C(F)(F)F)c(Br)c2c1`, the bioavailability in data set [1] stood at 115%. Also, the pKB (usually the negative decadic logarithm of the KB, by convention in mol/L) in data set [2] came out at 8.6. For the same compound, the Vd (in general, a proportionality between amount in the body and measured concentration, not a real space) in data set [3] came to 2.4 L/kg. The half-life (usually the time in which the quantity being followed falls by half) in data set [4] was 5.7 h. Besides, the clearance in data set [5] was 4.8 mL/min/kg.
In turn, `CCc1nc2c(C)ccnc2n1Cc1ccc2oc(-c3ccccc3NS(=O)(=O)C(F)(F)F)c(Br)c2c1` came in with a pKB in data set [2] of 8.3.
On the same count and under the same terms, for `CCc1nc2c(C)cc(C(=O)O)nc2n1Cc1ccc2oc(-c3ccccc3NS(=O)(=O)C(F)(F)F)c(Br)c2c1` the value was 9.3.
For `CCc1nc2c(C)cc(C)nc2n1Cc1ccc2oc(-c3ccccc3NS(=O)(=O)C(F)(F)F)c(Br)c2c1`, the bioavailability in data set [1] is 70%. This compound also returned a pKB in data set [2] of 9.3. In data set [3], this compound had a Vd of 1.33 L/kg. Moreover, in data set [4], the half-life is 2.8 h. Also, the clearance in data set [5] was 5.49 mL/min/kg.
